In patent US11000033B2, “Ketone or oxime compound, and herbicide” (NISSAN CHEMICAL CORPORATION, priority 2014, dated 2021):

Legend:
Format in all cases: in vivo
Avena fatua = assay: Test Example 5: herbicidal effect by foliage application, plastic box (symbol I); conditions: 320 g/ha, 3 weeks after application
Outline: (§1)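 Leaf-applied emulsion, water-diluted to a preset herbicide dose, on two-week-old seedlings raised in a 25° C. to 30° C. greenhouse; injury rated at 3 weeks using earlier criteria.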

Amaranthus retroflexus [1] = assay: Test Example 5: herbicidal effect by foliage application, plastic box (symbol N); conditions: 320 g/ha, 3 weeks after application
Outline: as §1

rapeseed = assay: Test Example 4: effect on crop by soil treatment (symbol g)
Outline: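 Sterilized diluvial soil, spot sowing, ~1.5 cm soil cover; greenhouse 25–30° C.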

Galium spurium = assay: Test Example 5: herbicidal effect by foliage application, plastic box (symbol Q); conditions: 320 g/ha, 3 weeks after application
Outline: as §1

Digitaria ciliaris = assay: Test Example 4: herbicidal effect by soil treatment (symbol F)
Outline: (§2)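 Seeds were sown in sterilized diluvial soil, covered with about 1.5 cm of soil, and the soil surface was sprayed with a water-diluted emulsion of the compound at a predetermined rate. Plants grew in a greenhouse at 25° C. to 30° C.; effects were scored visually 3 weeks after application.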

[2] = tested on: Echinochloa crus-galli var. crus-galli; assay: Test Example 5: herbicidal effect by foliage application, plastic box (symbol H); conditions: 320 g/ha, 3 weeks after application
Outline: as §1

[3] = tested on: Echinochloa oryzacola Vasing.; assay: Test Example 1: herbicidal activity, application before weed generation in submerged conditions (symbol A); conditions: application herbicide amount 320 g/ha
Outline: (§3)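 Steps: alluvial soil flooded to 4 cm; weed seeds sown together; rice seedlings (2.5 leaf) transplanted; diluted emulsion applied to water surface the same day as sowing; plants grown at 25–30 °C in greenhouse; herbicidal effect rated on a 0–5 scale at 3 weeks.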

Cyperus difformis = assay: Test Example 3: herbicidal effect by foliage application, Wagner pot (symbol E); conditions: application herbicide amount 320 g/ha
Outline: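 The compound, formulated as an emulsion and diluted with water to a predetermined rate, is applied uniformly to leaves of two-week-old seedlings growing in submerged alluvial soil at 25–30 °C. Rice is included. Each plant is assessed 3 weeks later using defined criteria.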

Alopecurus myosuroides = assay: Test Example 5: herbicidal effect by foliage application, plastic box (symbol J); conditions: 320 g/ha, 3 weeks after application
Outline: as §1

Amaranthus retroflexus [4] = assay: Test Example 4: herbicidal effect by soil treatment (symbol N)
Outline: as §2

Monochoria vaginalis [5] = assay: Test Example 1: herbicidal activity, application before weed generation in submerged conditions (symbol C); conditions: application herbicide amount 320 g/ha
Outline: as §3

Apera spica-venti = assay: Test Example 4: herbicidal effect by soil treatment (symbol L)
Outline: as §2

[6] = tested on: directly sowed rice plant; assay: Test Example 3: effect on crop by foliage application, Wagner pot (symbol b); conditions: application herbicide amount 320 g/ha
Outline: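 Plants are raised from seed in flooded paddy conditions: water stands 0.1–0.5 cm over alluvial soil, and the pot is kept in a greenhouse at 25–30 °C. Species sown are barnyardgrass (E. crus-galli var. crus-galli), Leptochloa chinensis, Cyperus difformis and rice.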

Monochoria vaginalis [7] = assay: Test Example 2: herbicidal activity, application during weed generation in submerged conditions (symbol C); conditions: Table 23; application herbicide amount 320 g/ha; grade 0-5 by criteria of Test Example 1
Outline: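 Treatment timing was the one- to two-leaf stage, with diluted emulsifiable compound dropped onto the paddy water (depth 4 cm) over alluvial soil. All three species grew from a mixed sowing in a 25° C. to 30° C. greenhouse. Injury was judged by eye 3 weeks on.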

[8] = application herbicide amount 320 g/ha

Structure (SMILES) | I: Avena fatua, herbicidal effect (criteria 0-5) (Avena fatua) | N: Amaranthus retroflexus, herbicidal effect (criteria 0-5) (Amaranthus retroflexus [1]) | g (rapeseed) effect on crop grade (rapeseed; [8]) | Q: Galium spurium, herbicidal effect (criteria 0-5) (Galium spurium) | F (Digitaria ciliaris) herbicidal effect grade (Digitaria ciliaris; [8]) | H: Echinochloa crus-galli var. crus-galli, herbicidal effect (criteria 0-5) [2] | Herbicidal effect grade, A: Echinochloa oryzacola Vasing. [3] | herbicidal effect on E, grade 0-5 (Cyperus difformis) | J: Alopecurus myosuroides, herbicidal effect (criteria 0-5) (Alopecurus myosuroides) | N (Amaranthus retroflexus) herbicidal effect grade (Amaranthus retroflexus [4]; [8]) | Herbicidal effect grade, C: Monochoria vaginalis (Monochoria vaginalis [5]) | L (Apera spica-venti) herbicidal effect grade (Apera spica-venti; [8]) | effect on crop b (directly sowed rice plant), grade 0-5 [6] | I: Avena fatua, herbicidal effect grade (Avena fatua) | N: Amaranthus retroflexus, herbicidal effect grade (Amaranthus retroflexus [1]) | Q: Galium spurium, herbicidal effect grade (Galium spurium) | H: Echinochloa crus-galli var. crus-galli, herbicidal effect grade [2] | J: Alopecurus myosuroides, herbicidal effect grade (Alopecurus myosuroides) | Herbicidal effect grade, C: Monochoria vaginalis (Monochoria vaginalis [7]) | further results
CON=C(C)CC1CC(OC(=O)COc2cccc(C#N)c2)=C(c2c(C)cc(C)cc2C)C1=O (centres unmarked) [1-074] | 5 (Herbicidal ratio of 90% or more (almost completely withered)) | 0 (Herbicidal ratio of 5% or lower (almost no effect)) | 4 (Herbicidal ratio of 70% or higher and lower than 90%) | 1 (Herbicidal ratio of 5% or higher and lower than 20%) | 5 (Herbicidal ratio of 90% or more (almost completely withered)) | 5 (Herbicidal ratio of 90% or more (almost completely withered)) | 5 (Herbicidal ratio of 90% or more (almost completely withered)) | 5 (Herbicidal ratio of 90% or more (almost completely withered)) | 5 (Herbicidal ratio of 90% or more (almost completely withered)) | 5 (Herbicidal ratio of 90% or more (almost completely withered)) | 4 (Herbicidal ratio of 70% or higher and lower than 90%) | 5 (Herbicidal ratio of 90% or more (almost completely withered)) | 5 (Herbicidal ratio of 90% or more (almost completely withered)) | – | – | – | – | – | – | –
C=CC(CC1CC(O)=C(c2c(C)cc(C)cc2C)C1=O)=NOC (centres unmarked) [1-086] | 4 (Herbicidal ratio of 70% or higher and lower than 90%) | 0 (Herbicidal ratio of 5% or lower (almost no effect)) | – | 0 (Herbicidal ratio of 5% or lower (almost no effect)) | – | 5 (Herbicidal ratio of 90% or more (almost completely withered)) | 5 (Herbicidal ratio of 90% or more (almost completely withered)) | 4 (Herbicidal ratio of 70% or higher and lower than 90%) | 4 (Herbicidal ratio of 70% or higher and lower than 90%) | – | 0 (Herbicidal ratio of 5% or lower (almost no effect)) | – | 5 (Herbicidal ratio of 90% or more (almost completely withered)) | – | – | – | – | – | – | g: rapeseed, effect grade on crop (rapeseed; 320 g/ha): 2 (Herbicidal ratio of 20% or higher and lower than 40%); F: Digitaria ciliaris, herbicidal effect grade (Digitaria ciliaris; 320 g/ha): 2 (Herbicidal ratio of 20% or higher and lower than 40%); N: Amaranthus retroflexus, herbicidal effect grade (Amaranthus retroflexus [4]; 320 g/ha): 0 (Herbicidal ratio of 5% or lower (almost no effect)); L: Apera spica-venti, herbicidal effect grade (Apera spica-venti; 320 g/ha): 3 (Herbicidal ratio of 40% or higher and lower than 70%)
CON=C(C)CC1CC(OC(=O)COc2ccc(C)cc2)=C(c2c(C)cc(C)cc2C)C1=O (centres unmarked) [1-072] | – | – | 4 (Herbicidal ratio of 70% or higher and lower than 90%) | – | 5 (Herbicidal ratio of 90% or more (almost completely withered)) | – | 5 (Herbicidal ratio of 90% or more (almost completely withered)) | 4 (Herbicidal ratio of 70% or higher and lower than 90%) | – | 5 (Herbicidal ratio of 90% or more (almost completely withered)) | – | 5 (Herbicidal ratio of 90% or more (almost completely withered)) | 5 (Herbicidal ratio of 90% or more (almost completely withered)) | 5 (Herbicidal ratio of 90% or more (almost completely withered)) | 5 (Herbicidal ratio of 90% or more (almost completely withered)) | 2 (Herbicidal ratio of 20% or higher and lower than 40%) | 5 (Herbicidal ratio of 90% or more (almost completely withered)) | 5 (Herbicidal ratio of 90% or more (almost completely withered)) | 0 (Herbicidal ratio of 5% or lower (almost no effect)) | –
CON=C(CC1CC(O)=C(c2c(C)cc(C)cc2C)C1=O)c1ccccc1 (centres unmarked) [1-047] | – | – | – | – | 3 (Herbicidal ratio of 40% or higher and lower than 70%) | – | 4 (Herbicidal ratio of 70% or higher and lower than 90%) | 0 (Herbicidal ratio of 5% or lower (almost no effect)) | – | 0 (Herbicidal ratio of 5% or lower (almost no effect)) | 0 (Herbicidal ratio of 5% or lower (almost no effect)) | 0 (Herbicidal ratio of 5% or lower (almost no effect)) | 2 (Herbicidal ratio of 20% or higher and lower than 40%) | 0 (Herbicidal ratio of 5% or lower (almost no effect)) | 0 (Herbicidal ratio of 5% or lower (almost no effect)) | 0 (Herbicidal ratio of 5% or lower (almost no effect)) | 3 (Herbicidal ratio of 40% or higher and lower than 70%) | 3 (Herbicidal ratio of 40% or higher and lower than 70%) | 0 (Herbicidal ratio of 5% or lower (almost no effect)) | –
CC#Cc1cc(C)c(C2=C(OC(=O)COc3ccccc3)CC(CC(=NOC)C(C)C)C2=O)c(C)c1 (centres unmarked) [9-003] | – | – | – | – | – | – | 5 (Herbicidal ratio of 90% or more (almost completely withered)) | – | – | – | 1 (Herbicidal ratio of 5% or higher and lower than 20%) | – | – | 4 (Herbicidal ratio of 70% or higher and lower than 90%) | 0 (Herbicidal ratio of 5% or lower (almost no effect)) | 0 (Herbicidal ratio of 5% or lower (almost no effect)) | 5 (Herbicidal ratio of 90% or more (almost completely withered)) | 5 (Herbicidal ratio of 90% or more (almost completely withered)) | – | Effect on crop grade, g: rapeseed (rapeseed; [8]): 5 (Herbicidal ratio of 90% or more (almost completely withered)); Herbicidal effect grade, F: Digitaria ciliaris (Digitaria ciliaris; [8]): 5 (Herbicidal ratio of 90% or more (almost completely withered)); E herbicidal effect grade (Cyperus difformis; Table 24): 5 (Herbicidal ratio of 90% or more (almost completely withered)); Herbicidal effect grade, N: Amaranthus retroflexus (Amaranthus retroflexus [4]; [8]): 0 (Herbicidal ratio of 5% or lower (almost no effect)); Herbicidal effect grade, L: Apera spica-venti (Apera spica-venti; [8]): 5 (Herbicidal ratio of 90% or more (almost completely withered)); b (directly sowed rice plant) effect on crop grade ([6]; Table 24): 5 (Herbicidal ratio of 90% or more (almost completely withered))
